Data: patent publication US8455534B2, “Estrogen receptor modulators and uses thereof” (Aragon Pharmaceuticals, Inc., priority 2010, dated 2013)
pIC50: −log10 of the molar value.

Legend:
ER-α = biological target: T1, ER-α (Homo sapiens, UniProt P03372); experiment: Breast Cancer Cell ER-α In Cell Western Assay (SP1); format: cell-based; conditions: MCF-7 cells, SP1 antibody, 4 or 24 hr post compound addition; for Emax: MCF7, read-out: ER-α In Cell Western Assay (SP1) Max Response; for DC50: read-out: ER-α In Cell Western Assay (SP1) IC50
T1 sequence (P03372 1-595): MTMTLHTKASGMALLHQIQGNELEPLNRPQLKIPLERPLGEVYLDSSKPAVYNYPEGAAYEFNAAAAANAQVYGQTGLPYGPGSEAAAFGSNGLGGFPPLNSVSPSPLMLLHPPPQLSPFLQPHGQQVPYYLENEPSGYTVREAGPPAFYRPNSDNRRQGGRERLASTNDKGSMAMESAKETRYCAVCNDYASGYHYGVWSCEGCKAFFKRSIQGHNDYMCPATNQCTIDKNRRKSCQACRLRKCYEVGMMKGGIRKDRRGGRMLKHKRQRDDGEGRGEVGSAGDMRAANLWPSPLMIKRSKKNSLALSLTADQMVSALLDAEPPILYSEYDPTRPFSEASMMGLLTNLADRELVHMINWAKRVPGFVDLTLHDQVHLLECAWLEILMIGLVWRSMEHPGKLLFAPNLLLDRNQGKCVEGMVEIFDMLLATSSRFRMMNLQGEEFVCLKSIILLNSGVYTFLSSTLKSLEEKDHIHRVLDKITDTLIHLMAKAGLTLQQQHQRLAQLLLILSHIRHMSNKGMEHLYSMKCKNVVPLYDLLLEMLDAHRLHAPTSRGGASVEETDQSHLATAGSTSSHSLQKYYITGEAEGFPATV
Method: MCF-7 cells were adjusted to a concentration of 200,000 cells per mL in RPMI containing 10% charcoal-stripped FBS and 20 mM HEPES. 16 microliters of the cell suspension (3200 cells) was added to each well of a poly-D-lysine 384 well plate, and the cells were incubated overnight to allow the cells to adhere. The following day an eleven point, serial semilog dilution of each compound was added to the cells in 16 μL at a final concentration ranging from 0.3-0.000003 μM. At 4 or 24 hr post compound addition, the cells were fixed (10% formalin in PBS) for 20 minutes. Cells were permeablized in PBS 0.1% Triton and blocked with LICOR blocking buffer (50 μL1/well, 90′). The wells were then incubated overnight at 4° C. with SP1 rabbit monoclonal Ab (Thermo Scientific) diluted 1:1000 in LICOR blocking buffer/0.1% Tween-20. Wells which were treated with blocking buffer with Tween but no antibody were used as a background control. Wells were washed with 0.1% Tween-20/PBS and then incubated in goat anti-rabbit IRDye™ 800CW (LICOR Inc.; 1:1000) and DRAQ5 DNA dye (1:2000 for 2 mM stock) diluted in LICOR blocking buffer containing 0.1% Tween-20 and 0.01% SDS for 60 minutes. Cells were washed (50 μl/well, 5′ each) in 0.1% Tween-20/PBS. Plates were scanned on a LICOR Odyssey infrared imaging system. Integrated intensities in the 800 nm channel and 700 nm channel were measured to determine levels of ER and DNA respectively. Percent ER levels were determined as follows: (Integrated intensity 800 nm sample/integrated intensity 700 nm sample)/(Integrated intensity 800 nm untreated cells/integrated intensity 700 nm untreated cells)×100=% ER levels.

MCF-7 cells = experiment: Breast Cancer Cell Viability Assay (MCF-7, CellTiter-Glo); format: cell-based; conditions: 5 days' compound exposure; for pIC50: Homo sapiens, MCF7, 120 h
Method: MCF-7 cells were adjusted to a concentration of 20,000 cells per mL in RPMI containing 10% FBS and 20 mM HEPES. 16 microliters of the cell suspension (320 cells) was added to each well of a 384 well plate, and the cells were incubated overnight to allow the cells to adhere. The following day an eleven point, serial semilog dilution of each compound was added to the cells in 16 μL at a final concentration ranging from 0.3-0.000003 μM. After 5 days' compound exposure, 16 μL of CellTiter-GLo (Promega, Madison Wis.) was added to the cells the relative luminescence units (RLUs) of each well was determined CellTiter-Glo added to 32 μL of medium without cells was used to obtain a background value. The Percent viability of each sample was determined as follows: (RLU sample-RLU background/RLU untreated cells-RLU background)×100=% viability.

Compound	Emax (ER-α) [%]	DC50 (ER-α) [nM]	pIC50 (MCF-7 cells)	MCF7 Viability Assay Max Response (MCF-7 cells)
CC/C(=C(/c1ccc(/C=C/C(=O)O)cc1)c1cc(F)c2[nH]ncc2c1)c1ccc(F)cc1Cl [Compound 65, (E)-3-(4-((E)-2-(2-Chloro-4-fluorophenyl)-1-(7-fluoro-1H-indazol-5-yl)but-1-en-1-yl)phenyl)acrylic acid]	≥ 40	≤ 100	≥ 7.00	++ (++ = a single % value ≧ 40%)
CC/C(=C(\c1ccc2[nH]ncc2c1)c1ccc(/C=C/C(=O)O)cc1OC)c1ccccc1 [Compound 108, (E)-3-(4-((Z)-1-(1H-Indazol-5-yl)-2-phenylbut-1-en-1-yl)-3-methoxyphenyl)acrylic acid]	≥ 40		≥ 7.00	++ (++ = a single % value ≧ 40%)
O=C(O)/C=C/c1ccc(/C(=C(/CCF)c2ccc(F)cc2Cl)c2ccc3[nH]ncc3c2)cc1 [Compound 120, (E)-3-(4-((E)-2-(2-Chloro-4-fluorophenyl)-4-fluoro-1-(1H-indazol-5-yl)but-1-en-1-yl)phenyl)acrylic acid]	≥ 40	≤ 100	≥ 7.00	++ (++ = a single % value ≧ 40%)
O=C(O)/C=C/c1ccc(/C(=C(/CCCl)c2ccc(F)cc2Cl)c2ccc3[nH]ncc3c2F)cc1 [Compound 77, (E)-3-(4-((E)-4-Chloro-2-(2-chloro-4-fluorophenyl)-1-(4-fluoro-1H-indazol-5-yl)but-1-en-1-yl)phenyl)acrylic acid]	≥ 40	≤ 100	≥ 7.00	++ (++ = a single % value ≧ 40%)
CC/C(=C(/c1ccc(/C=C/C(=O)O)cc1)c1ccc2c(cnn2C(F)F)c1)c1ccc(F)cc1Cl [Compound 148, (E)-3-(4-((E)-2-(2-Chloro-4-fluorophenyl)-1-(1-(difluoromethyl)-1H-indazol-5-yl)but-1-en-1-yl)phenyl)acrylic acid]	≥ 40	≤ 100	≥ 7.00	++ (++ = a single % value ≧ 40%)
CC/C(=C(/c1ccc(/C=C/C(=O)O)cc1)c1ccc2[nH]ncc2c1)c1cccc(F)c1F [Compound 31, (E)-3-(4-((E)-2-(2,3-Difluorophenyl)-1-(1H-indazol-5-yl)but-1-en-1-yl)phenyl)acrylic acid]	≥ 40	≤ 100	≥ 7.00	++ (++ = a single % value ≧ 40%)
CC/C(=C(/c1ccc(/C=C/C(=O)O)cc1)c1ccc2[nH]ncc2c1Cl)c1ccccc1 [Compound 52, (E)-3-(4-((E)-1-(4-Chloro-1H-indazol-5-yl)-2-phenylbut-1-en-1-yl)phenyl)acrylic acid]	≥ 40	≤ 100	≥ 7.00	++ (++ = a single % value ≧ 40%)
CC/C(=C(/c1ccc(/C=C/C(=O)O)cc1)c1ccc2[nH]ncc2c1)c1cccc(OC)c1Cl [Compound 135, (E)-3-(4-((E)-2-(2-Chloro-3-methoxyphenyl)-1-(1H-indazol-5-yl)but-1-en-1-yl)phenyl)acrylic acid]	≥ 40	≤ 100	≥ 7.00	++ (++ = a single % value ≧ 40%)

The next lines start with results.

Emax (ER-α) [%]	DC50 (ER-α) [nM]	pIC50 (MCF-7 cells)	Compound	MCF7 Viability Assay Max Response (MCF-7 cells)
≥ 40	≤ 100	≥ 7.00	CC/C(=C(/c1ccc(/C=C(\C)C(=O)O)cc1)c1ccc2[nH]ncc2c1)c1ccccc1 [Compound 99, (E)-3-(4-((E)-1-(1H-Indazol-5-yl)-2-phenylbut-1-en-1-yl)phenyl)-2-methylacrylic acid]	++ (++ = a single % value ≧ 40%)
≥ 40	≤ 100	< 7.00	COCCCC/C(=C(/c1ccc(/C=C/C(=O)O)cc1)c1ccc2[nH]ncc2c1)c1ccccc1 [Compound 81, (E)-3-(4-((E)-1-(1H-Indazol-5-yl)-6-methoxy-2-phenylhex-1-en-1-yl)phenyl)acrylic acid]	++ (++ = a single % value ≧ 40%)
≥ 40	≤ 100	< 7.00	CC/C(=C(/c1ccc(/C=C/C(=O)O)cc1)c1ccc2[nH]ncc2c1)c1ccccc1CO [Compound 8, (E)-3-(4-((E)-2-(2-(Hydroxymethyl)phenyl)-1-(1H-indazol-5-yl)but-1-en-1-yl)phenyl)acrylic acid]	++ (++ = a single % value ≧ 40%)
≥ 40	≤ 100	≥ 7.00	CC/C(=C(/c1ccc(/C=C/C(=O)O)cc1)c1ccc2[nH]ncc2c1)c1ccc(F)cc1 [Compound 3, (E)-3-(4-((E)-2-(4-Fluorophenyl)-1-(1H-indazol-5-yl)but-1-en-1-yl)phenyl)acrylic acid]	++ (++ = a single % value ≧ 40%)
≥ 40		≥ 7.00	CC/C(=C(/c1ccc(/C=C/C(=O)O)cc1)c1ccc2[nH]ncc2c1)c1ccccc1C#N [Compound 21, (E)-3-(4-((E)-2-(2-Cyanophenyl)-1-(1H-indazol-5-yl)but-1-en-1-yl)phenyl)acrylic acid]	++ (++ = a single % value ≧ 40%)
≥ 40	> 100	< 7.00	O=C(O)/C=C/c1ccc(/C(=C(/CCO)c2ccccc2)c2ccc3[nH]ncc3c2)cc1 [Compound 46, (E)-3-(4-((E)-4-Hydroxy-1-(1H-indazol-5-yl)-2-phenylbut-1-en-1-yl)phenyl)acrylic acid]	+ (+ = a single % value < 40%)
≥ 40	≤ 100	≥ 7.00	CCCC/C(=C(/c1ccc(/C=C/C(=O)O)cc1)c1ccc2[nH]ncc2c1)c1ccccc1 [Compound 59, (E)-3-(4-((E)-1-(1H-Indazol-5-yl)-2-phenylhex-1-en-1-yl)phenyl)acrylic acid]	++ (++ = a single % value ≧ 40%)
≥ 40	≤ 100	≥ 7.00	O=C(O)/C=C/c1ccc(/C(=C(\c2ccccc2Cl)C2CC2)c2ccc3[nH]ncc3c2)cc1 [Compound 57, (E)-3-(4-((E)-2-(2-Chlorophenyl)-2-cyclopropyl-1-(1H-indazol-5-yl)vinyl)phenyl)acrylic acid]	++ (++ = a single % value ≧ 40%)
≥ 40	≤ 100	< 7.00	CC/C(=C(/c1ccc(/C=C(\F)C(=O)O)cc1)c1ccc2[nH]ncc2c1)c1ccccc1 [Compound 103, (Z)-3-(4-((E)-1-(1H-Indazol-5-yl)-2-phenylbut-1-en-1-yl)phenyl)-2-fluoroacrylic acid]	++ (++ = a single % value ≧ 40%)
≥ 40		≥ 7.00	[2H]C([2H])([2H])C/C(=C(/c1ccc(/C=C/C(=O)O)cc1)c1ccc2[nH]ncc2c1)c1ccccc1 [Compound 28, (E)-3-(4-((E)-4,4,4-Trideutero-1-(1H-indazol-5-yl)-2-phenylbut-1-en-1-yl)phenyl)acrylic acid]	++ (++ = a single % value ≧ 40%)
≥ 40	≤ 100	≥ 7.00	C/C(=C(/c1ccc(/C=C/C(=O)O)cc1)c1ccc2[nH]ncc2c1)c1ccccc1 [Compound 42, (E)-3-(4-((E)-1-(1H-Indazol-5-yl)-2-phenylprop-1-en-1-yl)phenyl)acrylic acid]	++ (++ = a single % value ≧ 40%)
